PubChem BioAssay (NCI)
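48-hour exposure; five concentrations; linearly interpolated endpoints. Here, GI50 denotes the concentration required for 50% inhibition of growth. TGI: concentration producing complete growth inhibition.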

How the values were obtained:
Test in all cases: growth of human tumour cells (NCI), 48 h
TK-10 renal = system: TK-10 renal
HOP-92 NSCLC = system: HOP-92 NSCLC
NCI-H23 lung = system: NCI-H23 lung
IGROV1 ovarian = system: IGROV1 ovarian
OVCAR-5 ovarian = system: OVCAR-5 ovarian
KM12 colon = system: KM12 colon
NCI-H522 lung = system: NCI-H522 lung
NCI/ADR-RES ovarian = system: NCI/ADR-RES ovarian
UACC-62 melanoma = system: UACC-62 melanoma
UACC-257 melanoma = system: UACC-257 melanoma
786-0 renal = system: 786-0 renal
ACHN renal = system: ACHN renal
MDA-MB-231 breast = system: MDA-MB-231 breast
SK-MEL-2 melanoma = system: SK-MEL-2 melanoma
OVCAR-3 ovarian = system: OVCAR-3 ovarian
BT-549 breast = system: BT-549 breast
UO-31 renal = system: UO-31 renal
SF-268 CNS = system: SF-268 CNS
MCF7 breast = system: MCF7 breast
M14 melanoma = system: M14 melanoma
MDA-MB-435 = system: MDA-MB-435
SR leukemia = system: SR leukemia
SK-MEL-5 melanoma = system: SK-MEL-5 melanoma
MOLT-4 leukemia = system: MOLT-4 leukemia
DU-145 prostate = system: DU-145 prostate
SF-539 CNS = system: SF-539 CNS
SF-295 CNS = system: SF-295 CNS
A498 renal = system: A498 renal
NCI-H226 lung = system: NCI-H226 lung
HL-60(TB) leukemia = system: HL-60(TB) leukemia
SN12C renal = system: SN12C renal
HCT-15 colon = system: HCT-15 colon
HS 578T breast = system: HS 578T breast
CAKI-1 renal = system: CAKI-1 renal
EKVX NSCLC = system: EKVX NSCLC
NCI-H460 lung = system: NCI-H460 lung
SW-620 colon = system: SW-620 colon
A549 NSCLC = system: A549 NSCLC
PC-3 prostate = system: PC-3 prostate
CCRF-CEM leukemia = system: CCRF-CEM leukemia
RPMI-8226 leukemia = system: RPMI-8226 leukemia
K-562 leukemia = system: K-562 leukemia
OVCAR-8 ovarian = system: OVCAR-8 ovarian
HCC-2998 colon = system: HCC-2998 colon

Q: With O=C1C=CC(=O)C(c2cc(-c3ccc(Cl)cc3)nn2-c2ccccc2)=C1 as the compound, how does the GI50 (TK-10 renal) read?
A: Its GI50 is 19.3 µM.

Q: And the TGI (TK-10 renal)?
A: Its TGI is 45 µM.

Q: And the GI50 (HOP-92 NSCLC)?
A: Its GI50 is 23.5 µM.

Q: And the TGI (HOP-92 NSCLC)?
A: The TGI was 67.2 µM.

Q: And the GI50 (NCI-H23 lung)?
A: The GI50 was 17.5 µM.

Q: And the TGI (NCI-H23 lung)?
A: Its TGI is 42.9 µM.

Q: And the GI50 (IGROV1 ovarian)?
A: The GI50 was 35.8 µM.

Q: And the TGI (IGROV1 ovarian)?
A: The TGI was over 100 µM.

Q: And the GI50 (OVCAR-5 ovarian)?
A: The GI50 was 27.2 µM.

Q: And the TGI (OVCAR-5 ovarian)?
A: The TGI was 72.1 µM.

Q: What about the GI50 (KM12 colon) of the same compound?
A: The GI50 was 19 µM.

Q: And the TGI (KM12 colon)?
A: The TGI was 44.3 µM.

Q: What about the GI50 (NCI-H522 lung) of the same compound?
A: Its GI50 is 25.9 µM.

Q: And the TGI (NCI-H522 lung)?
A: The TGI was 71.7 µM.

Q: And the GI50 (NCI/ADR-RES ovarian)?
A: Its GI50 is 23.4 µM.

Q: What about the TGI (NCI/ADR-RES ovarian) of the same compound?
A: Its TGI is 54.7 µM.

Q: And the GI50 (UACC-62 melanoma)?
A: Its GI50 is 16.6 µM.

Q: And the TGI (UACC-62 melanoma)?
A: Its TGI is 30.7 µM.

Q: And the GI50 (UACC-257 melanoma)?
A: The GI50 was 29.7 µM.

Q: What about the TGI (UACC-257 melanoma) of the same compound?
A: The TGI was 71.3 µM.

Q: And the GI50 (786-0 renal)?
A: The GI50 was 16.9 µM.

Q: What about the TGI (786-0 renal) of the same compound?
A: The TGI was 36.9 µM.

Q: What about the GI50 (ACHN renal) of the same compound?
A: Its GI50 is 20.6 µM.

Q: What about the TGI (ACHN renal) of the same compound?
A: The TGI was 41.8 µM.

Q: What about the GI50 (MDA-MB-231 breast) of the same compound?
A: The GI50 was 12.2 µM.

Q: What about the TGI (MDA-MB-231 breast) of the same compound?
A: Its TGI is 29 µM.

Q: What about the GI50 (SK-MEL-2 melanoma) of the same compound?
A: The GI50 was 51.3 µM.

Q: And the TGI (SK-MEL-2 melanoma)?
A: Its TGI is over 100 µM.

Q: And the GI50 (OVCAR-3 ovarian)?
A: Its GI50 is 24.8 µM.

Q: What about the TGI (OVCAR-3 ovarian) of the same compound?
A: The TGI was 54.6 µM.

Q: And the GI50 (BT-549 breast)?
A: Its GI50 is 38 µM.

Q: And the TGI (BT-549 breast)?
A: The TGI was 99.6 µM.

Q: And the GI50 (UO-31 renal)?
A: The GI50 was 38.1 µM.

Q: And the TGI (UO-31 renal)?
A: Its TGI is over 100 µM.

Q: What about the GI50 (SF-268 CNS) of the same compound?
A: Its GI50 is 21 µM.

Q: And the TGI (SF-268 CNS)?
A: Its TGI is 50 µM.

Q: And the GI50 (MCF7 breast)?
A: Its GI50 is 18.8 µM.

Q: And the TGI (MCF7 breast)?
A: The TGI was over 100 µM.

Q: What about the GI50 (M14 melanoma) of the same compound?
A: The GI50 was 16.9 µM.

Q: What about the TGI (M14 melanoma) of the same compound?
A: The TGI was 35.9 µM.

Q: What about the GI50 (MDA-MB-435) of the same compound?
A: Its GI50 is 20.5 µM.

Q: What about the TGI (MDA-MB-435) of the same compound?
A: The TGI was 46 µM.

Q: And the GI50 (SR leukemia)?
A: The GI50 was 34.4 µM.

Q: What about the TGI (SR leukemia) of the same compound?
A: The TGI was over 100 µM.

Q: And the GI50 (SK-MEL-5 melanoma)?
A: Its GI50 is 18.3 µM.

Q: What about the TGI (SK-MEL-5 melanoma) of the same compound?
A: The TGI was 39 µM.

Q: And the GI50 (MOLT-4 leukemia)?
A: Its GI50 is 37.4 µM.

Q: What about the TGI (MOLT-4 leukemia) of the same compound?
A: Its TGI is over 100 µM.

Q: What about the GI50 (DU-145 prostate) of the same compound?
A: Its GI50 is 25.4 µM.

Q: And the TGI (DU-145 prostate)?
A: The TGI was 91.1 µM.

Q: And the GI50 (SF-539 CNS)?
A: Its GI50 is 27.1 µM.

Q: And the TGI (SF-539 CNS)?
A: The TGI was 51.1 µM.

Q: What about the GI50 (SF-295 CNS) of the same compound?
A: The GI50 was 29.3 µM.

Q: What about the TGI (SF-295 CNS) of the same compound?
A: The TGI was 66.3 µM.

Q: What about the GI50 (A498 renal) of the same compound?
A: Its GI50 is 10.7 µM.

Q: And the TGI (A498 renal)?
A: The TGI was 48.9 µM.

Q: What about the GI50 (NCI-H226 lung) of the same compound?
A: The GI50 was 16.9 µM.

Q: And the TGI (NCI-H226 lung)?
A: Its TGI is 59.6 µM.

Q: And the GI50 (HL-60(TB) leukemia)?
A: The GI50 was 36.2 µM.

Q: And the TGI (HL-60(TB) leukemia)?
A: The TGI was over 100 µM.

Q: What about the GI50 (SN12C renal) of the same compound?
A: Its GI50 is 23.5 µM.

Q: What about the TGI (SN12C renal) of the same compound?
A: The TGI was 46.9 µM.

Q: What about the GI50 (HCT-15 colon) of the same compound?
A: Its GI50 is 30.4 µM.

Q: What about the TGI (HCT-15 colon) of the same compound?
A: The TGI was over 100 µM.

Q: What about the GI50 (HS 578T breast) of the same compound?
A: The GI50 was 23.7 µM.

Q: And the TGI (HS 578T breast)?
A: The TGI was 86.3 µM.

Q: And the GI50 (CAKI-1 renal)?
A: The GI50 was 25.8 µM.

Q: What about the TGI (CAKI-1 renal) of the same compound?
A: Its TGI is 53.5 µM.

Q: And the GI50 (EKVX NSCLC)?
A: Its GI50 is 41.6 µM.

Q: And the TGI (EKVX NSCLC)?
A: The TGI was over 100 µM.

Q: What about the GI50 (NCI-H460 lung) of the same compound?
A: The GI50 was 32.2 µM.

Q: What about the TGI (NCI-H460 lung) of the same compound?
A: The TGI was over 100 µM.

Q: And the GI50 (SW-620 colon)?
A: The GI50 was 32.9 µM.

Q: And the TGI (SW-620 colon)?
A: Its TGI is over 100 µM.

Q: What about the GI50 (A549 NSCLC) of the same compound?
A: The GI50 was 21.9 µM.

Q: And the TGI (A549 NSCLC)?
A: Its TGI is 55.7 µM.

Q: What about the GI50 (PC-3 prostate) of the same compound?
A: Its GI50 is 17.4 µM.

Q: And the TGI (PC-3 prostate)?
A: The TGI was 41.6 µM.

Q: What about the GI50 (CCRF-CEM leukemia) of the same compound?
A: The GI50 was 11.7 µM.

Q: What about the TGI (CCRF-CEM leukemia) of the same compound?
A: The TGI was 81.8 µM.

Q: And the GI50 (RPMI-8226 leukemia)?
A: Its GI50 is 16.1 µM.

Q: And the TGI (RPMI-8226 leukemia)?
A: The TGI was 41 µM.

Q: And the GI50 (K-562 leukemia)?
A: Its GI50 is 31.1 µM.

Q: What about the TGI (K-562 leukemia) of the same compound?
A: Its TGI is over 100 µM.

Q: What about the GI50 (OVCAR-8 ovarian) of the same compound?
A: Its GI50 is 40.5 µM.

Q: And the TGI (OVCAR-8 ovarian)?
A: The TGI was over 100 µM.

Q: And the GI50 (HCC-2998 colon)?
A: Its GI50 is 18.8 µM.

Q: And the TGI (HCC-2998 colon)?
A: Its TGI is 34.4 µM.
